# According to patent US12337010B2, “Compositions and methods of treatment using nicotinamide mononucleotide” (Washington University, priority 2017, dated 2025):
# Assays:
# [1] = tested on: primary mouse hepatocytes; assay: NMN uptake in primary mouse hepatocytes, intracellular NMN by HPLC; assay type: cell-based
# Protocol: The amounts of adenosine produced were determined by HPLC. […] Silencing efficiencies were evaluated by quantitative RT-PCR.
# Primary mouse hepatocytes were pretreated with 500 nM FK866 for 24 h and then incubated with a cocktail of 20 μM dipyridamole, 500 μM AOPCP, and 500 nM FK866, with or without 100 μM NMN. NMN was measured by HPLC (n=4 mice, except for 3 data sets for 15 and 30 minute time points for inhibitors only; analyzed using ANOVA with Sidak's test).
# To measure the knockdown efficiencies of Slc12a8 and Nrk1 mRNA in primary mouse hepatocytes, cells were treated with scramble and Slc12a8 or Nrk1 siRNA for 72 h (n=5 mice for Slc12a8 silencing and n=3 for Nrk1 silencing; analyzed by unpaired […] t-test). Without being limited by theory, these conditions knocked down expression of Slc12a8 and Nrk1, a major NR kinase that converts NR to NMN intracellularly (Belenky, P., et al., Cell, 129, 473-484, 2007). Primary hepatocytes treated with scramble, Slc12a8, and Nrk1 siRNA were assayed at 1 min after addition of 100 μM NMN via HPLC. Culture conditions were the same as described in Example 3 (n=5 mice for Slc12a8 silencing and n=3 for Nrk1 silencing; analyzed by ANOVA with Tukey's test). The knockdown efficiencies for both genes are approximately 80% (FIG. 7).
# [2] = biological target: T1, Slc12a8 (Mus musculus, UniProt Q8VI23); assay: 3H-NMN uptake and displacement in Slc12a8-OE proteoliposomes; assay type: biochemical
# T1 construct: NIH3T3 cells were transfected with 5 μg of pCXN2 carrying the full-length Slc12a8 cDNA (Slc12a8-OE); expressed in transfected cells
# T1 sequence (Q8VI23 1-705): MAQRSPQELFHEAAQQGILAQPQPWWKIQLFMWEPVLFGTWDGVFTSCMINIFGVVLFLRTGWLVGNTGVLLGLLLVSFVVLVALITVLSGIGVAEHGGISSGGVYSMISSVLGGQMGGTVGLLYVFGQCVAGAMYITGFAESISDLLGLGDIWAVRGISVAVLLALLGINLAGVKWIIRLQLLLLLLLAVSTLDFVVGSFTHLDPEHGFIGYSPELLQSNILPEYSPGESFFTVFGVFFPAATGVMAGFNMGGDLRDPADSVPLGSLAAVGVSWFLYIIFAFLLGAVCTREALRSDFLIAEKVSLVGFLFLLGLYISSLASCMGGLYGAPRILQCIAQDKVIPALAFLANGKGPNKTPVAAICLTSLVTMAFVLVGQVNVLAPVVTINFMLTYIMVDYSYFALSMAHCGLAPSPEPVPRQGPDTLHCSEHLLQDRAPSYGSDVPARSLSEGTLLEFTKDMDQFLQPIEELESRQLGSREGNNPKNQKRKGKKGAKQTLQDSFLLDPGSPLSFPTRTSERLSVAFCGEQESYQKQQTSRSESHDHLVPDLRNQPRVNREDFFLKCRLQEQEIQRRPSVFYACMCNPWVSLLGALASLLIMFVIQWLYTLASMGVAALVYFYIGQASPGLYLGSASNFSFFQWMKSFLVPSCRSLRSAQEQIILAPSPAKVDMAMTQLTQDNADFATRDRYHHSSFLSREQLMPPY
# Protocol: Proteoliposome experiments. Proteoliposome preparation was carried out as previously described (Bruzzone, S., et al., FASEB J., 15, 10-12, 2001). Briefly, 2×10^7 control or Slc12a8-OE NIH3T3 cells were resuspended in 1 ml of lysis buffer (10 mM Tris-HCl, pH 8.3, 150 mM NaCl, 0.3 M sucrose, protease inhibitor cocktail) and disrupted using a homogenizer. The lysate was centrifuged for 10 min at 3,000×g, and the supernatant was collected and centrifuged for 15 min at 100,000×g. The membrane proteins were solubilized with buffer A (10 mM Tris-HCl, pH 8.3, containing 150 mM NaCl and 0.5% n-octyl β-glucopyranoside). Separately, total lipids were extracted from hemoglobin-free erythrocyte membranes (ghosts) as described previously (Franco, L., et al., FASEB J., 12, 1507-1520, 1998). Total lipids from human erythrocyte membranes (3 mg) were dried and resuspended with 600 μl of solubilized membrane proteins (at approximately 0.7 mg/ml protein concentration). The resulting emulsions were sonicated in ice for 1 min and dialyzed against 5 liters of buffer A without n-octyl-β-glucopyranoside (dialysis buffer) for 24 h at 4° C. Proteoliposomes were recovered, centrifuged for 15 min at 100,000×g, resuspended in 900 μl dialysis buffer and passed 5 times through a 30-gauge needle.
# To examine the Na+-dependency of Slc12a8, NaCl was replaced with 150 mM LiCl. All steps were carried out at 4° C. Proteoliposomes (30 μl in triplicate for each condition) were incubated for 2, 5 or 10 min at 25° C. in the presence of […] 3H-β-NMN (specific activity, 9.1 Ci/mmole) with or without label-free nucleotides (NMN, NR, NAD, AMP; NAM or NaMN). At the end of incubations, samples were filtered on a glass fiber paper. Filters were washed with 3 ml of dialysis buffer, dried, and counted for radioactivity.
# Proteoliposomes were produced by combining the membrane fractions of Slc12a8-OE or control NIH3T3 cells with the phospholipid bilayers derived from deproteinized erythrocyte plasma membrane as described supra using 22 nM, ^3H-NMN at 25° C. in proteoliposomes produced from plasma membrane fractions of Slc12a8-OE and control NIH3T3 cells in transport buffer (n=3; analyzed by one-way ANOVA with Sidak's multiple comparisons test).
# In order to determine substrate specificity of Slc12a8, these Slc12a8-OE proteoliposomes were used for displacement experiments with ^3H-NMN and various cold NAD+-related compounds. Uptake of ^3H-NMN (150 nM, 25° C.) was measured at 2 min in Slc12a8-OE proteoliposomes in the presence of 150 μM competing cold compounds (NMN, NR, NAD, AMP, NaMN, and nicotinamide) in transport buffer (n=3, analyzed by ANOVA with Dunnett's test). […] Data are shown as percentages of ^3H-NMN uptake (n=3; IC50 was calculated by non-linear regression analysis).
# In these experiments, the sodium ion dependency of Slc12a8 for NMN transport was evaluated using the proteoliposome system.
compound,measurement,setting,value
"NC(=O)c1ccc[n+]([C@@H]2O[C@H](COP(=O)([O-])O)[C@@H](O)[C@H]2O)c1 [NMN, nicotinamide mononucleotide]",intracellular NMN levels,"[1]; 100 μM NMN with 20 μM dipyridamole, 500 μM AOPCP, 500 nM FK866, 1 min time point vs control",significantly increase
same,NMN uptake,"[1]; Nrk1-knockdown hepatocytes, 1 min after 100 μM NMN",no significant reduction
same,fast uptake of NMN,"[1]; Slc12a8-knockdown hepatocytes, 1 min after 100 μM NMN",completely abrogated
same,displacement of 3H-NMN,"[2]; 150 μM cold compound, 150 nM 3H-NMN, 25° C., 2 min",complete displacement
same,IC50,[2]; Slc12a8-OE proteoliposome system,22.8 ± 3.6 µM
